Test results reported in PubChem BioAssay (NCI).
Where “and” joins values, the source holds several entries; their conditions need not be identical. Equal values may be shown once.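 How tested: cells in 96-well plates exposed to compound for 48 hours at five concentrations. At the GI50, growth is halved. Definition used: TGI = concentration required for complete inhibition of growth.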

Tests used:
Assay in all cases: NCI anticancer screen, dose series, 48 h
LXFL 529 NSCLC = tested on: LXFL 529 NSCLC
NCI-H522 lung = tested on: NCI-H522 lung
SK-MEL-28 melanoma = tested on: SK-MEL-28 melanoma
DLD-1 colon = tested on: DLD-1 colon
SK-MEL-5 melanoma = tested on: SK-MEL-5 melanoma
NCI-H460 lung = tested on: NCI-H460 lung
U251 CNS = tested on: U251 CNS
SNB-75 CNS = tested on: SNB-75 CNS
A498 renal = tested on: A498 renal
NCI/ADR-RES ovarian = tested on: NCI/ADR-RES ovarian

Compound	TGI (LXFL 529 NSCLC) [µM]	TGI (NCI-H522 lung) [µM]	TGI (SK-MEL-28 melanoma) [µM]	TGI (DLD-1 colon) [µM]	TGI (SK-MEL-5 melanoma) [µM]	TGI (NCI-H460 lung) [µM]	TGI (U251 CNS) [µM]	TGI (SNB-75 CNS) [µM]	GI50 (NCI-H522 lung)	GI50 (SK-MEL-28 melanoma) [µM]	GI50 (SK-MEL-5 melanoma) [µM]	GI50 (NCI-H460 lung) [µM]	GI50 (SNB-75 CNS) [µM]	GI50 (U251 CNS)	GI50 (A498 renal) [µM]	TGI (A498 renal)	GI50 (NCI/ADR-RES ovarian) [µM]	TGI (NCI/ADR-RES ovarian) [µM]
COc1ccc2c([nH]c3cc(O)c(C)cc32)c1C=O	> 25	> 25	> 25	> 25	> 25	> 25	> 25	–	–	–	–	–	–	–	–	–	–	–
CN(C)CC(/C(Cc1ccccc1)=N\NC(=O)c1ccncc1)c1ccccc1 (centres undefined)	> 100	> 100	> 100	> 100	46.2	–	–	92.8	–	–	–	–	–	–	–	–	–	–
O=C(c1cc(F)c(Cl)cc1Cl)N1N=C(c2ccccc2)CC1(O)c1ccccc1 (centres undefined)	–	36.9	31.6	–	26.9	36.7	38.5	59.6	14.5 µM	16.2	14	19.1	20.7	18.4 µM	11.8	24 µM	19	41
O=[N+]([O-])c1ccc(-c2nc(N(CCO)CCO)c3ccccc3n2)o1	–	0.217	2.41	–	0.244	0.38	1.34	0.588	0.0713 µM	0.877	0.112	0.0537	0.16	0.229 µM	0.119	0.255 µM	0.956	7.57
CC1Cc2c(N)nc(NN)nc2NC1=O (centres undefined)	–	> 100	> 100	> 100	> 100	> 100	> 100	> 100	–	–	–	–	–	–	–	–	–	–
OC(C1=C/C(=C\c2ccncc2)c2ccccc21)c1ccncc1 (centres undefined)	–	31.1	34.6	–	13	28.2	31.4	24	–	–	–	–	–	–	–	27.3 µM	–	> 75
COc1cc2c(c(OC)c1OC)-c1ccc(SC)c(=O)cc1[C@@H](NC(=O)c1ccc(OC(C)=O)cc1)CC2	–	–	60	28.8	–	0.0206	0.0544	–	–	15	0.0196	–	–	–	–	0.0779 µM and 0.0202 µM	–	–
CCN(CC)CCOc1ccc(Nc2ncc3cc(-c4ccc(O)cc4)c(=O)n(C)c3n2)cc1	–	27.1	27.6	–	31	8.85	2.81	13.7	2.69 µM	10.6	14.8	3.77	0.0406	1.4 µM	1.5	13.4 µM	12.7	41.5
COc1ccc(C2S/C(=C\c3cc(OC)c(OC)c(OC)c3)C(=O)N2NC(=O)Cc2ccccc2)cc1 (centres undefined)	> 100	> 100	> 100	> 100	> 100	> 100	> 100	> 100	–	–	–	–	–	–	–	–	–	–
C=C1C(=O)O[C@@H]2C1C[C@@H](O)/C(C)=C/C/C=C(\C)CCC[C@H](C)[C@H]2OC(C)=O (some centres undefined)	–	79.9	> 100	–	35.5	> 100	52.4	> 100	22.7 µM	34.5	17.7	> 100	38.6	23.8 µM	54	> 100 µM	32.3	> 100
COc1ccc(/C=C\c2cc(OC)c(OC)c(OC)c2)cc1OC(=O)C(N)CCC(=O)O (centres undefined)	–	–	> 59	> 100	–	–	–	–	0.00114 µM and 0.000248 µM	–	–	0.00112	–	0.000543 µM and 0.000132 µM	–	–	0.000317	0.608
N#Cc1ccccc1NC(=O)/C(=N\NC(=O)c1ccncc1)C(c1cnc2ccc([N+](=O)[O-])cc2n1)[N+](=O)[O-] (centres undefined)	–	> 100	> 100	–	> 100	> 100	> 100	> 100	–	–	–	–	–	–	–	> 100 µM	–	> 100
CCCc1ccc(S(=O)(=O)N[C@H]2CC[C@H]3[C@@H]4CCc5cc(O)ccc5[C@H]4CC[C@]23C)cc1	–	9.09	6.33	–	3.01	6.41	4.25	9.98	2.32 µM	2.45	1.63	2.54	2.23	1.95 µM	1.78	5.45 µM	2.75	10.6
CCN1C(=O)N(CC)C2C1NN=c1s/c(=C3\C(=O)N(CC(C)C)c4ccccc43)c(=O)n12 (centres undefined)	–	–	> 100	–	> 100	> 100	27.4	3.82	0.4 µM	3.28	0.436	0.471	0.268	0.548 µM	0.197	0.875 µM	0.479	> 30.4
O=[N+]([O-])c1ccc(Sc2c3ccccc3nc3ccccc23)cc1	> 100	> 100	> 100	> 100	> 100	> 100	> 100	> 100	–	–	–	–	–	–	–	–	–	–
COC1/C(=C\C(=O)OC(C)(C)C)c2ccccc2N1C(C)=O (centres undefined)	> 100	–	> 100	> 100	–	> 100	> 100	> 100	–	–	–	–	–	–	–	> 100 µM	–	–
CCC1=C[C@@H]2CN(C1)Cc1c([nH]c3ccccc13)[C@@](C(=O)OC)(c1cc3c(cc1OC)N(C=O)[C@H]1[C@@](O)(C(=O)OC)[C@H](OC(C)=O)[C@]4(CC)[C@@H]5C[C@@H]5CN5CC[C@]31[C@@H]54)C2	–	0.01	> 6.25	–	0.0315	> 6.25	> 6.25	> 5.74	< 0.000625 µM	0.0014	0.000921	0.00135	0.000766	0.000676 µM	0.00221	0.0794 µM	0.632	> 6.25
CCOC(=O)CCCn1c(SC)nc2cc(-c3ccco3)[nH]c2c1=O	–	> 100	> 100	–	> 100	> 100	56	17.7	35.1 µM	> 100	> 100	> 100	4.55	17.1 µM	27.4	76 µM	72.9	> 100
Nc1ccc(C(=O)c2ccc(N)c(Br)c2)cc1Br	–	0.623	> 100	–	17.9	5.76	18.3	13.4	0.256 µM	1.09	0.372	0.346	0.291	0.419 µM	0.277	3.95 µM	0.348	> 46.2
COC(=O)/C=C(C)/C=C/c1cc(C(C)=O)c(C)o1	> 100	> 100	–	> 100	–	> 100	> 100	> 100	–	–	–	–	–	–	–	–	–	–
NCCCC(=O)Nc1ccncc1	–	> 100	> 100	–	> 100	> 100	> 100	> 100	> 100 µM	> 100	> 100	> 100	60	> 100 µM	> 100	> 100 µM	> 100	> 100
CC1(CO)OC1COCc1ccccc1 (centres undefined)	> 100	–	–	> 100	–	> 100	> 100	> 100	–	–	–	–	–	–	–	–	–	–
C/C=C(\C)C(=O)N[C@H]1[C@@H](OC(C)=O)C[C@]2(C)C3CC[C@@]4(C)C(CC[C@@H]4C(C)N(C)C)C3CCC2[C@H]1O (some centres undefined)	–	15.3	3.67	–	3.77	5.8	18.3	20.8	4.99 µM	1.83	1.6	2.18	5.86	4.48 µM	2.73	20 µM	9.79	30.3
Cn1nc(-c2ccccc2)c(N=[N+]=[N-])cc1=O	> 100	> 100	> 100	–	> 100	> 100	> 100	–	–	–	–	–	–	–	–	> 100 µM	–	–
Fc1ccc(Oc2nccc(-c3c(-c4ccc(F)cc4)ncn3C3CCNCC3)n2)cc1	–	> 25	> 25	–	> 25	> 25	> 25	> 25	> 25 µM	> 25	> 25	> 25	> 25	> 25 µM	> 25	> 25 µM	> 25	> 25
Cn1ccc2c(NCCN)c3c(c(NCCN)c21)C(=O)c1ccccc1C3=O	–	4.92	36.7	–	4.99	2.24	9.88	44.5	0.498 µM	15.6	2.19	0.448	18.9	1.03 µM	2.31	4.87 µM	8.04	26.7
CCCCCNC(=O)[C@@H]1CCCN2C(=O)CC[C@H](NC(=O)[C@H](Cc3ccc(OP(=O)(O)O)cc3)NC(C)=O)C(=O)N12	–	> 25	> 25	–	> 25	> 25	> 25	> 25	> 25 µM	> 25	> 25	> 25	> 25	> 25 µM	> 25	> 25 µM	> 25	> 25
